US8481597B2, “Use of (-) (3-trihalomethylphenoxy) (4-halophenyl) acetic acid derivatives for treatment of insulin resistance, type 2 diabetes, hyperlipidemia and hyperuricemia” (Metabolex, Inc., priority 1999, dated 2013)
Values joined by “and” are separate entries in the source; they are usually repeats but may differ in a detail not shown here. Identical values can stand only once. “Also recorded” adds a separate entry of the source.

Legend:
C57BL/6J ob/ob mice [1] = assay: Time course of glucose-lowering after a single oral dose in diabetic ob/ob mice (Example 8); format: in vivo; conditions: single oral dose 250 mg/kg; for time course of glucose-lowering, in words: 250 mg/kg
C57BL/6J ob/ob mice [2] = assay: Glucose and insulin lowering on daily oral administration in diabetic ob/ob mice (Example 9); format: in vivo
Procedure: The gavage volume was 10 ml/kg.

Zucker fa/fa rats = assay: Oral glucose challenge in Zucker fatty rats (Example 10); format: in vivo
Procedure: Prior to treatment, rats were assigned to 6 groups based on body weight. Each treatment group consisted of 8 rats. […] The gavage volume was 10 ml/kg. All rats received an oral glucose challenge (1.9 g/kg) 5.5 hours after the treatment and 4 hours after withdrawal of the food. Blood samples were taken at 0, 15, 30, 60, 90, 120, and 180 minutes following the glucose challenge for plasma glucose measurement. […] On day 5, rats received the intravenous insulin (0.75 U/kg) 5.5 hours after the last dose and 4 hours after withdrawal of the food. Blood samples were taken at 3, 6, 9, 12, 15 and 18 minutes following the insulin injection for plasma glucose measurement.

[3] = test system: Zucker diabetic fatty (ZDF) rats; assay: Lipid lowering in Zucker Diabetic Fatty rats (Example 11); format: in vivo; conditions: for plasma cholesterol, in words: Experiment I, 13 days, racemate 50 mg/kg/day, enantiomers 25 mg/kg/day; for plasma cholesterol lowering, in words / plasma triglyceride, in words: 37.5 mg/kg/day (High dose), 37.5 mg/kg/day
Procedure: Male Zucker diabetic fatty (ZDF) rats were obtained from GMI Laboratories (Indianapolis, Ind.) at 9 weeks of age. Vehicle or enantiomers of halofenate administered by oral gavage on a daily basis starting at 74 days of age. Initial blood samples were obtained for analysis one day before treatment and at the indicated times in the treatment protocol. Blood was analyzed for plasma triglyceride and cholesterol by standard techniques.

ZDF rats = assay: Plasma glucose in ZDF rats, (−) halofenate vs (+) halofenate (Example 13); format: in vivo; conditions: 50 mg/kg oral once a day for 3 days
Procedure: Male 8-9 week old ZDF rats were purchased from Genetic Models, Inc. (Indianapolis, Ind.). […] Rats that had 4-hour fasting plasma glucose levels between 200 and 500 mg/dL were used. […] The gavage volume was 5 ml/kg. Blood samples were taken at 5 hours post dose on day 2 and 3.

[4] = Pharmacokinetic study of (±) halofenate and (−) halofenate in SD rats (Example 14); format: in vivo; conditions: single oral (−) halofenate 50 mg/kg, Rats 8, 9, 11 individually, BQL <1.00 μg/mL
Procedure: Male 225-250 g SD rats were purchased from Charles River. […] A catheter was placed in the left carotid artery under sodium pentobarbital (50 mg/kg i.p.) and animals were allowed to recover for 2 days before treatment. […] The gavage volume was 5 ml/kg. Blood samples were collected at 1, 2, 4, 6, 8, 12, 24, 48, 72, 96 and 120 hours post dose. The plasma samples were analyzed for each enantiomeric acid ((−) halofenic acid and (+) halofenic acid) by a chiral specific HPLC assay, since the esters are prodrugs, which are designed to convert to their respective enantiomeric acids in vivo.

C57BL/6J db/db mice = assay: Prevention of diabetes and alleviation of hypertriglyceridemia in db/db mice (Example 15); format: in vivo; conditions: 150 mg/kg/day in chow for 9 weeks
Procedure: Blood samples were taken at 8-10 AM once a week for 9 weeks under non-fasting condition. Food intake and body weight were measured every 1-3 days. Plasma glucose and triglyceride concentrations were determined colorimetrically using kits from Sigma Chemical Co (No. 315 and No. 339, St. Louis, Mo., USA). Plasma insulin levels were measured using RIA assay kit purchased from Linco Research (St. Charles, Mo.).

cyclooxygenase 1 (COX-1) = biological target: T1, cyclooxygenase 1 (COX-1) (Homo sapiens, UniProt P23219); assay: COX-1 inhibition in human whole blood assay, TXB2 production (Example 19); format: cell-based
T1 construct: was conducted using fresh human blood from healthy donors; endogenous in cells; host or cells: heparinized fresh human whole blood, stimulated with calcium ionophore A23187
Procedure: An assay for cyclooxygenase 1 (COX-1) inhibition by the compounds of the present invention was conducted using fresh human blood from healthy donors. […] The enzyme was activated by the commercially available calcium ionophore A23187.
This bioassay is based on the production of thromboxane B2 (TXB2) after COX-1 activation. When activated, COX-1 generates prostaglandin H2 which is then converted to thromboxane A2 (TXA2) by thromboxane synthase and then finally to thromboxane B2 by non-enzymatic […]. In addition, PGE2 levels were measured to exclude inhibition of thromboxane synthase. This assay allows discrimination between COX-1 and thromboxane synthase inhibition.
TXB2 and PGE2 were measured by commercially available immunoassay kits purchased from Assay Designs, Inc. (Ann Arbor, Mich.). All other chemicals were from Sigma except as noted. […] Immediately before use, all compounds were diluted 1:10 in RPMI-1640 medium (Gibco BRL, 11875-093) to make a 10× concentrated stock solution. The 10×RPMI-1640 stock solutions of the calcium ionophore were prepared in an identical manner. […] COX-1 was then activated by adding 25 microliters of the 10× stock solution of 25 micromolar calcium ionophore. The plates were shaken for 10 minutes at room temperature and then incubated at 37° C. for an additional 30 minutes. After these incubation times, the plates were centrifuged at 2,000 g for 5 minutes. Two microliters of plasma were taken from each reaction for the measurement of TXB2 using an enzyme immunoassay kit from Assay Designs, Inc. The PGE2 level in the same reaction was measured using a PGE2 enzyme immunoassay kit from Assay Designs, Inc.
The results of the assay are presented as the percent inhibition of COX-1 activity.

[5] = daily oral, racemate 250 mg/kg/day, enantiomers 125 and 250 mg/kg/day
[6] = Experiment II, listed as (−) enantiomer

T1 sequence (P23219 24-599): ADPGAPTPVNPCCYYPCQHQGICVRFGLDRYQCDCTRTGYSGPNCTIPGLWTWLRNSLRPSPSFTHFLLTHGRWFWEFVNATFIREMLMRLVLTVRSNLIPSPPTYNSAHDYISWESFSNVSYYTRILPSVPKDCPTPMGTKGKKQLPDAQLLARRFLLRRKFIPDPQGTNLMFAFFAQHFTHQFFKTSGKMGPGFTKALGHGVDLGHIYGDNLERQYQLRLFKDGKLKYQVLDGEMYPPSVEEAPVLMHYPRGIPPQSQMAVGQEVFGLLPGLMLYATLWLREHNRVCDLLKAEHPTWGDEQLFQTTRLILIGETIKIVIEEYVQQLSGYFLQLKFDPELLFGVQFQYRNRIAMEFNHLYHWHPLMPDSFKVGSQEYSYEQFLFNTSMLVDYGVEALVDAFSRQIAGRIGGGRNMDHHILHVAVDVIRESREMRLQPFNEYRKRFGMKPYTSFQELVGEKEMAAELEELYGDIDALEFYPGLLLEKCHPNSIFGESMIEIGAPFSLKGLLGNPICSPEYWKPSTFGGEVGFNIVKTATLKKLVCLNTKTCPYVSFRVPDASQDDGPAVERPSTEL

## CC(=O)NCCOC(=O)C(Oc1cccc(C(F)(F)F)c1)c1ccc(Cl)cc1 (single isomer, unassigned; (-)) [(−) halofenate, (−) 2-acetamidoethyl 4-chlorophenyl-(3-trifluoromethylphenoxy)acetate]
C57BL/6J ob/ob mice [1]
  earliest time of plasma glucose reduction / significant activity: 1.5 h
  time of peak glucose-lowering activity: 3 h
  time course of glucose-lowering, in words: more rapid onset and sustained longer
C57BL/6J ob/ob mice [1]; listed as (−) enantiomer
  time course of glucose-lowering, in words: most rapid onset of action and the longest duration of action; also recorded: more effective and significantly different (p<0.05) from the (+) enantiomer at both the 3 hour and 24 hour time points
C57BL/6J ob/ob mice [1]; vehicle 408±16.2
  plasma glucose at 24 hours: 217 ± 16.4 mg/dL
C57BL/6J ob/ob mice [2]; 125 mg/kg/day oral, ob/ob mice
  overnight fasting plasma insulin after 5 days treatment, in words: Significantly lower plasma insulins
  time points after first dose with significantly reduced plasma insulin: 27 h
C57BL/6J ob/ob mice [2]; 250 mg/kg/day oral, ob/ob mice
  overnight fasting plasma insulin after 5 days treatment, in words: Significantly lower plasma insulins
  time points after first dose with significantly reduced plasma glucose: 3 h
  time points after first dose with significantly reduced plasma insulin: 27 h and 30 h
C57BL/6J ob/ob mice [2]; 250 mg/kg/day oral, ob/ob mice, control 185.4±12.3
  plasma glucose following an overnight fast after 5 days treatment: 127.3 ± 8.0 mg/dL
C57BL/6J ob/ob mice [2]; [5]
  plasma glucose relative to control animals, in words: Significant decreases in glucose levels
  plasma insulin relative to vehicle control, in words: insulins were lower
Zucker fa/fa rats; racemate 100 mg/kg, enantiomers 50 and 100 mg/kg
  incremental glucose area under the curve (AUC) relative to vehicle control, in words: significant reductions in the glucose area; also recorded: Significant changes (p<0.05)
Zucker fa/fa rats; single oral dose 100 mg/kg 5.5 hours before challenge
  plasma glucose after oral glucose challenge, in words: greatest degree of glucose-lowering of all the treated animals
Zucker fa/fa rats; single oral dose 5.5 hours before challenge, racemate 100 mg/kg, enantiomers 50 and 100 mg/kg
  plasma glucose after oral glucose challenge, in words: most effective in lowering the glucose; also recorded: lower glucose levels that persisted at 90-120 minutes
[3]
  plasma cholesterol, in words: significant decrease in plasma cholesterol
[3]; listed as (−) enantiomer
  plasma cholesterol, in words: plasma cholesterol declined with treatment; also recorded: most active of the species tested
[3]; Experiment II, 12.5 mg/kg/day (Low dose)
  days of treatment with significantly lower plasma cholesterol vs control: 7 days
[3]; Experiment II
  plasma cholesterol lowering, in words: much greater decline in plasma cholesterol
[3]; Experiment II, listed as (−) enantiomer of halofenate
  plasma triglyceride, in words: greater magnitude
[3]; [6]
  plasma cholesterol lowering, in words: greatest extent of cholesterol lowering
  plasma triglyceride, in words: lowest triglyceride levels of all the treatment groups; also recorded: significant lowering of plasma triglyceride
ZDF rats
  plasma glucose concentrations compared to vehicle-treated animals, in words: significantly reduced plasma glucose concentrations
[4]; time 0 hour
  Plasma concentration of (+) halofenic acid: BQL
  Plasma concentration of (−) halofenic acid: BQL
[4]; time 1 hour
  Plasma concentration of (+) halofenic acid: BQL
[4]; time 2 hours
  Plasma concentration of (+) halofenic acid: BQL
[4]; time 4 hours
  Plasma concentration of (+) halofenic acid: BQL
[4]; time 6 hours
  Plasma concentration of (+) halofenic acid: BQL
[4]; time 8 hours
  Plasma concentration of (+) halofenic acid: BQL
[4]; time 72 hours
  Plasma concentration of (+) halofenic acid: BQL
[4]; time 96 hours
  Plasma concentration of (+) halofenic acid: BQL
[4]; time 120 hours
  Plasma concentration of (+) halofenic acid: BQL
C57BL/6J db/db mice
  increase of plasma glucose levels with age, in words: prevented or significantly delayed
  plasma insulin concentration, in words: maintained the plasma insulin concentration
  plasma triglyceride concentration, in words: alleviated the increase of plasma triglyceride concentration; also recorded: alleviated hyperlipidemia
Cyclooxygenase 1 (COX-1); heparinized fresh human blood, calcium ionophore A23187, TXB2 readout, read-out: IC50, inhibition of the COX-1 enzyme in blood
  IC50: > 3 mM
Cyclooxygenase 1 (COX-1); human whole blood assay
  inhibition of COX-1, in words: substantially weaker and ineffective inhibitor of the COX-1 enzyme; also recorded: much less effective than the racemate in inhibiting COX-1
